# Reference: patent US20240166652A1, “MODULATORS OF THE INTEGRATED STRESS PATHWAY” (Calico Life Sciences LLC, priority 2017, published 2024)
# System: ATF4 luciferase reporter in HEK293T cells
# Assay: ATF4-Luc assay (ATF4 luciferase reporter, tunicamycin-treated HEK293T cells)
# Format: cell-based, human
# Conditions: Homo sapiens, HEK-293T; HEK293T cells carrying the ATF4 luciferase reporter, 1 μg/mL tunicamycin, 7 hours
row,Structure (SMILES),EC50 [nM]
1,"O=C(COc1ccc(Cl)c(F)c1)NC12CC(NCC(=O)c3ccc(Cl)c(Cl)c3)(C1)C2 [Compound 286, 2-(4-chloro-3-fluorophenoxy)-N-(3-{[2-(3,4-dichlorophenyl)-2-oxoethyl]amino}bicyclo[1.1.1]pentan-1-yl)acetamide]",50 to 250
2,"O=C(COc1ccc(Cl)c(Cl)c1)NC12CC(NC(=O)NCc3cccc(F)c3)(C1)C2 [Compound 451, 2-(3,4-dichlorophenoxy)-N-[3-({[(3-fluorophenyl)methyl]carbamoyl}amino)bicyclo[1.1.1]pentan-1-yl]acetamide]",> 2000
3,"O=C(COc1ccc(Cl)c(F)c1)N[C@H]1C(=O)C[C@@]2(NC(=O)COc3ccc(Cl)c(F)c3)CC[C@@H]1C2 [Compound 652, N,N′-[(1R,4R,5R)-3-oxobicyclo[3.2.1]octane-1,4-diyl]bis[2-(4-chloro-3-fluorophenoxy)acetamide]]",10 to 50
4,"O=C(COc1ccc2c(c1)OC(F)(F)O2)NC12CCC(NC(=O)COc3ccc(OC(F)(F)F)cc3)(CC1)[C@@H](O)C2 [Compound 786, 2-[(2,2-difluoro-2H-1,3-benzodioxol-5-yl)oxy]-N-[(3S)-3-hydroxy-4-{2-[4-(trifluoromethoxy)phenoxy]acetamido}bicyclo[2.2.2]octan-1-yl]acetamide]",< 10
5,"Cc1ccc(OCC(=O)NC23CCC(NC(=O)COc4ccc(C)c(C)c4)(CC2)[C@@H](O)C3)cc1C [Compound 443, N,N′-[(2S)-2-hydroxybicyclo[2.2.2]octane-1,4-diyl]bis[2-(3,4-dimethylphenoxy)acetamide]]",< 10
6,"O=C(COc1ccc(Cl)c(Cl)c1)NC12CC(NCCOc3ccc(Cl)c(Cl)c3)(C1)C2 [Compound 125, 2-(3,4-dichlorophenoxy)-N-(3-{[2-(3,4-dichlorophenoxy)ethyl]amino}-bicyclo[1.1.1]pentan-1-yl)acetamide]",< 10
7,"Cc1n[nH]c2cc(OCC(=O)NC34CC(NC(=O)COc5ccc(Cl)c(F)c5)(C3)C4)ccc12 [Compound 184, 2-(4-chloro-3-fluorophenoxy)-N-(3-{2-[(3-methyl-1H-indazol-6-yl)oxy]acetamido}bicyclo[1.1.1]pentan-1-yl)acetamide]",50 to 250
8,"O=C(COc1ccc(Cl)c(F)c1)NC12CC(NCC(=O)c3ccc(Cl)c(F)c3)(C1)C2 [Compound 291, 2-(4-chloro-3-fluorophenoxy)-N-(3-{[2-(4-chloro-3-fluorophenyl)-2-oxoethyl]amino}bicyclo[1.1.1]pentan-1-yl)acetamide]",250 to 500
9,"O=C(COc1ccc(Cl)c(F)c1)NC12CC(NC(=O)COc3ccc(Cl)cn3)(C1)C2 [Compound 213, 2-(4-chloro-3-fluorophenoxy)-N-(3-{2-[(5-chloropyridin-2-yl)oxy]acetamido}bicyclo[1.1.1]pentan-1-yl)acetamide]",50 to 250
10,"O=C(COc1ccc(Cl)c(F)c1)NC12CC(NC(=O)COc3ccc(Cl)c(CO)c3)(C1)C2 [Compound 224, 2-(4-chloro-3-fluorophenoxy)-N-(3-{2-[4-chloro-3-(hydroxymethyl)phenoxy]-acetamido}bicyclo[1.1.1]pentan-1-yl)acetamide]",50 to 250
11,"O=C(CCOc1ccc(Cl)c(F)c1)NC12CCC(NC(=O)COc3ccc(Cl)cc3)(CC1)CC2 [Compound 729, 3-(4-chloro-3-fluorophenoxy)-N-{4-[2-(4-chlorophenoxy)acetamido]bicyclo[2.2.2]octan-1-yl}propanamide]",50 to 250
12,"O=C(COc1ccc(Cl)c(F)c1)NC12CC(NC(=O)Cc3ccc(C(F)(F)F)cc3)(C1)C2 [Compound 341, 2-(4-chloro-3-fluorophenoxy)-N-(3-{2-[4-(trifluoromethyl)phenyl]acetamido}bicyclo[1.1.1]pentan-1-yl)acetamide]",50 to 250
13,"O=C(COc1ccc(Cl)c(Cl)c1)NC12CC(NC(=O)COc3cnc(C4CC4)cn3)(C1)C2 [Compound 285, 2-[(5-cyclopropylpyrazin-2-yl)oxy]-N-{3-[2-(3,4-dichlorophenoxy)acetamido]-bicyclo[1.1.1]pentan-1-yl}acetamide]",50 to 250
14,"O=C(COCCc1cccc(Cl)c1)NC12CC(NC(=O)COc3ccc(Cl)c(Cl)c3)(C1)C2 [Compound 151, 2-[2-(3-chlorophenyl)ethoxy]-N-{3-[2-(3,4-dichlorophenoxy)acetamido]-bicyclo[1.1.1]pentan-1-yl}acetamide]",< 10
15,"Cc1cc2nc(CNC34CCC(NC(=O)COc5ccc(C(F)(F)F)c(F)c5)(CC3)[C@@H](O)C4)[nH]c2cc1C [Compound 673, N-[(2S)-4-{[(5,6-dimethyl-1H-benzimidazol-2-yl)methyl]amino}-2-hydroxybicyclo[2.2.2]octan-1-yl]-2-[3-fluoro-4-(trifluoromethyl)phenoxy]acetamide]",50 to 250
16,"O=C(COc1ccc(Cl)c(F)c1)NC12CC(NC(=O)COc3ccc(Cl)cc3NCCO)(C1)C2 [Compound 797, 2-(4-chloro-3-fluorophenoxy)-N-[3-(2-{4-chloro-2-[(2-hydroxyethyl)amino]phenoxy}acetamido)bicyclo[1.1.1]pentan-1-yl]acetamide]",50 to 250

row,Structure (SMILES),EC50 [nM]
1,"NC(=O)C1CC2(NC(=O)COc3ccc(Cl)c(F)c3)CCC1(NC(=O)COc1ccc(Cl)c(F)c1)CC2 (centres unmarked) [Compound 441, 1,4-bis[2-(4-chloro-3-fluorophenoxy)acetamido]bicyclo[2.2.2]octane-2-carboxamide]",10 to 50
2,"O=C(COc1ccc(F)c(F)c1)NC12CCC(NC(=O)COc3ccc(F)cc3)(CC1)C(O)C2 (centres unmarked) [Compound 364, 2-(3,4-difluorophenoxy)-N-{4-[2-(4-fluorophenoxy)acetamido]-3-hydroxybicyclo[2.2.2]octan-1-yl}acetamide]",< 10
3,"O=C(/C=C/c1ccc(OC(F)(F)F)cn1)NC12CC(NC(=O)COc3ccc(Cl)c(F)c3)(C1)C2 [Compound 376, (2E)-N-{3-[2-(4-chloro-3-fluorophenoxy)acetamido]bicyclo[1.1.1]pentan-1-yl}-3-[5-(trifluoromethoxy)pyridin-2-yl]prop-2-enamide]",250 to 500
4,"O=C(COc1ccc(Cl)c(F)c1)NC12CCC(OCc3ccc(Cl)cc3)(CC1)CC2=O [Compound 564, 2-(4-chloro-3-fluorophenoxy)-N-{4-[(4-chlorophenyl)methoxy]-2-oxobicyclo[2.2.2]octan-1-yl}acetamide]",> 2000
5,"O=C(COc1ccc(Cl)c(F)c1)NC12CC(NC(=O)COc3cc(F)c(F)cc3F)(C1)C2 [Compound 414, 2-(4-chloro-3-fluorophenoxy)-N-{3-[2-(2,4,5-trifluorophenoxy)acetamido]bicyclo[1.1.1]pentan-1-yl}acetamide]",< 10
6,"O=C(COc1ccc2c(c1)OC(F)(F)O2)NC12CCC(NC(=O)COc3ccc4c(c3)OC(F)(F)O4)(CC1)[C@@H](O)C2 [Compound 542, N,N′-[(2S)-2-hydroxybicyclo[2.2.2]octane-1,4-diyl]bis{2-[(2,2-difluoro-2H-1,3-benzodioxol-5-yl)oxy]acetamide}]",< 10
7,"CS(=O)(=O)c1ccc(OCC(=O)NC23CCC(NC(=O)COc4ccc(OC(F)(F)F)cc4)(CC2)[C@@H](O)C3)cc1F [Compound 765, 2-[3-fluoro-4-(methanesulfonyl)phenoxy]-N-[(3S)-3-hydroxy-4-{2-[4-(trifluoromethoxy)phenoxy]acetamido}bicyclo[2.2.2]octan-1-yl]acetamide]",250 to 500
8,"O=C(COc1ccc(Cl)c(F)c1)NC12CC(COc3ccc(C(F)F)cn3)(C1)C2 [Compound 613, 2-(4-chloro-3-fluorophenoxy)-N-[3-({[5-(difluoromethyl)pyridin-2-yl]oxy}methyl)bicyclo[1.1.1]pentan-1-yl]acetamide]",500 to 2000
9,"O=C(COc1ccc(Cl)c(Cl)c1)NC12CC(NCCOc3ccc(Cl)cc3F)(C1)C2 [Compound 123, N-(3-{[2-(4-chloro-2-fluorophenoxy)ethyl]amino}bicyclo[1.1.1]pentan-1-yl)-2-(3,4-dichlorophenoxy)acetamide]",10 to 50
10,"CC(C)(O)c1ccc(OCC(=O)NC23CC(NC(=O)COc4ccc(Cl)c(Cl)c4)(C2)C3)cc1 [Compound 422, 2-(3,4-dichlorophenoxy)-N-(3-{2-[4-(2-hydroxypropan-2-yl)phenoxy]acetamido}bicyclo[1.1.1]pentan-1-yl)acetamide]",250 to 500
11,"O=C(COc1cccnc1)NC12CCC(NC(=O)COc3ccc(Cl)c(F)c3)(C1)C2 [Compound 403, 2-(4-chloro-3-fluorophenoxy)-N-(4-{2-[(pyridin-3-yl)oxy]acetamido}bicyclo[2.1.1]hexan-1-yl)acetamide]",500 to 2000
12,"O=C(COc1ccn2nccc2c1)NC12CCC(NC(=O)COc3ccc(Cl)c(F)c3)(CC1)[C@@H](O)C2 [Compound 645, 2-(4-chloro-3-fluorophenoxy)-N-[(2S)-2-hydroxy-4-{2-[(pyrazolo[1,5-a]pyridin-5-yl)oxy]acetamido}bicyclo[2.2.2]octan-1-yl]acetamide]",< 10
13,"O=C(COc1ccc(C(F)F)nc1)NC12CC(NC(=O)COc3ccc(Cl)c(F)c3)(C1)C2 [Compound 399, 2-(4-chloro-3-fluorophenoxy)-N-[3-(2-{[6-(difluoromethyl)pyridin-3-yl]oxy}acetamido)bicyclo[1.1.1]pentan-1-yl]acetamide]",10 to 50
14,"O=C(COc1ccc(Cl)c(F)c1)NC12CCC(NC(=O)COc3ccc(Cl)c(F)c3)(CC1)[C@@H](O)[C@@H]2O (racemic) [Compound 745, rac-N,N′-[(2R,3R)-2,3-dihydroxybicyclo[2.2.2]octane-1,4-diyl]bis[2-(4-chloro-3-fluorophenoxy)acetamide]]",< 10
15,"O=C(COc1ccc(Cl)c(F)c1)NC12CCC(NC(=O)COc3ccc(Cl)c(F)c3)(CC1)C(CCO)C2 (centres unmarked) [Compound 643, N,N′-[2-(2-hydroxyethyl)bicyclo[2.2.2]octane-1,4-diyl]bis[2-(4-chloro-3-fluorophenoxy)acetamide]]",< 10
16,"O=C(COc1ccc(Cl)c(F)c1)NC12CC(NC(=O)C(OCCO)c3ccc(F)cc3)(C1)C2 (centres unmarked) [Compound 779, N-{3-[2-(4-chloro-3-fluorophenoxy)acetamido]bicyclo[1.1.1]pentan-1-yl}-2-(4-fluorophenyl)-2-(2-hydroxyethoxy)acetamide]",> 2000
